Experimental data taken from paper PMC9959553, “Promising Antifungal Molecules against Mucormycosis Agents Identified from Pandemic Response Box®: In Vitro and In Silico Analyses” (Journal of Fungi, 2023).
≈ marks a conversion by molar mass, not a printed value. Read-outs that look alike come from different tables or passages of the source.

Assays:
R. oryzae [1] = assay: Antifungal susceptibility testing (broth microdilution, MIC and MFC); assay type: cell-based, Rhizopus oryzae; details: for MIC50 / MFC: Rhizopus arrhizus, 48 h; for MIC50: lowest concentration that inhibits 50% of fungal growth; for MFC: subculture in drug-free medium
Description: (§1) The susceptibility of the Rhizopus species to MMV396785 (alexidine), MMV1580844, MMV642550 and MMV019724 was determined using the broth microdilution method, according to EUCAST protocols, with modifications. Posaconazole and amphotericin B were also used as reference antifungal drugs because they are commonly used for the treatment of mucormycosis. […] A standardized suspension of conidia (2 × 10^5/mL) was added to the wells and incubated for 48 h at 37 °C, in a 5% CO2 atmosphere. Fungal growth was analyzed via spectrophotometry readings at 600 nm and cell viability was assessed using the XTT reduction assay. Minimum inhibitory concentration (MIC) of each compound was defined as the lowest concentration that inhibits 50% of fungal growth, because these fungi are highly resistant to antifungal drugs and a reduction in half of their growth is relevant. […] MFC values were defined as the lowest drug concentration able to arrest fungal growth.

R. microsporus = assay: as above; assay type: cell-based, Rhizopus microsporus var. microsporus; details: for MIC50 / MFC: Rhizopus microsporus, 48 h; for MIC50: lowest concentration that inhibits 50% of fungal growth; for MFC: subculture in drug-free medium
Description: as §1

[2] = tested on: R. oryzae, R. microsporus and R. stolonifer; assay: Antifungal susceptibility testing, values stated over the three species; assay type: cell-based; details: over the three Rhizopus species
Description: as §1

R. oryzae [3] = assay: Antifungal drug synergy assay, Bliss independence model; assay type: cell-based, Rhizopus oryzae; parameters: key to Interaction: S, synergistic interaction; A, antagonist interaction; Efficacy of Combined Drugs, E obs / Efficacy of Combined Drugs, E exp: concentration or dose not given beside the values; details: for Efficacy of Drugs Alone (% of Inhibition), MIC50: at MIC50; for Efficacy of Drugs Alone (% of Inhibition), ½ MIC50: at ½ MIC50; for ΔE: Eobs minus Eexp; for Efficacy of Combined Drugs, E exp: expected by Bliss calculation
Description: (§2) Synergistic interactions were evaluated using the checkerboard method according to EUCAST guidelines (EUCAST 2008). R. oryzae conidia (2 × 10^5/mL) were grown in 96-well plates containing supplemented RPMI in the presence of the following selected compounds: […] An inhibition of at least 50% was defined as the cut-off for minimum inhibitory concentration (MIC). Interactions were determined by the fractional inhibitory concentration index (FICI), which was calculated using the following formula: (MIC combined/MIC drug A alone) + (MIC combined/MIC drug B alone). […] The Bliss independence model calculation was performed according to […] colleagues and Zhao and colleagues. The following formula was used to assess drug interaction: […] The results were classified as follows: synergistic effect when Eobs > Eexp; indifference when Eobs = Eexp; antagonistic effect when Eobs < Eexp.

R. oryzae UCP1295 [4] = assay: Antifungal drug synergy assay, checkerboard method (FICI); assay type: cell-based, Rhizopus oryzae; details: Rhizopus arrhizus, UCP1295, 48 h; drug alone; read-out: MIC50 Alone
Description: as §2

[5] = cited from earlier work
R. stolonifer = assay: Antifungal susceptibility testing (broth microdilution, MIC and MFC); assay type: cell-based, Rhizopus stolonifer; details: for MIC50 / MFC: Rhizopus stolonifer, 48 h; for MIC50: lowest concentration that inhibits 50% of fungal growth; for MFC: subculture in drug-free medium
Description: as §1

[6] = Cytotoxicity assay (neutral red); assay type: cell-based; details: human
Description: (§3) Cytotoxicity of alexidine, MMV1580844, MMV642550 and MMV019724 was performed using three cell lineages: RAW 264.7, a murine macrophage culture; A549, adenocarcinomic human alveolar basal epithelial cells; and HaCaT, a spontaneously transformed aneuploid immortal keratinocyte cell line from adult human skin. Cells were grown in DMEM (Dulbecco’s Modified Eagle’s Medium, Sigma-Aldrich, MO, USA), supplemented with 10% fetal bovine serum and incubated for 48 h at 37 °C with 5% CO2 in the presence of serially diluted concentrations (0.3–50 μM) of each compound. Cell viability was measured using the neutral red (NR) assay and quantified using a spectrophotometer at 595 nm (SpectraMax® i3x, Molecular Devices®, San José, CA, USA).

R. oryzae cells = assay: Analysis of fungal cell alterations with fluorescent staining; assay type: cell-based, Rhizopus oryzae; details: ½× MIC50, 48 h
Description: Alterations of R. oryzae cells caused by alexidine, MMV1580844, MMV642550 and MMV019724 were analyzed using fluorescent staining. Chitin, nucleic acid, oxidative stress, mitochondrial membrane potential and neutral lipid content were evaluated using calcofluor white (Sigma-Aldrich, MO, USA), Sytox Blue (ThermoFisher, Waltham, MA, USA), 2′,7′–dichlorofluorescein diacetate (DCFH-DA) (Sigma-Aldrich, MO, USA), JC-1 probe (ThermoFisher, Waltham, MA, USA) and Nile Red (Sigma-Aldrich, MO, USA), respectively. […] Cells were stained with 25 μg/mL of calcofluor white, 20 μM of Sytox Blue, 50 μg/mL of DCFH-DA, 10 μg/mL of JC-1 or 20 μg/mL of Nile Red, all of them for 1 h at 37 °C in the dark. Samples were washed three times to remove residual dye and suspended in PBS. Fluorescence intensity was measured using the SpectraMax 340 microplate reader (Molecular Devices, San José, CA, USA) under the following conditions: calcofluor white at 350 nm (excitation) and 432 nm (emission); Sytox Blue at 444 nm (excitation) and 480 nm (emission); DCFH-DA at 492 nm (excitation) and 517 nm (emission); JC-1 at 475 nm (excitation) and 529 nm (green fluorescence) or 590 nm (red fluorescence) for the calculation of the red/green fluorescence intensity; and Nile Red at 550 nm (excitation) and 635 nm (emission).

[7] = Cytotoxicity assay (neutral red); assay type: cell-based, murine; details: mouse, RAW 264.7 macrophage cells
Description: as §3

R. oryzae UCP1295 [8] = assay: Screening of the Pandemic Response Box library at 5 µM; assay type: cell-based, Rhizopus oryzae; details: for inhibition at 5 µM: Rhizopus arrhizus, UCP1295, 48 h
Method in brief: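 Growth inhibition was read at 600 nm after conidia (2 × 10^5/mL) grew 48 h at 37 °C, 5% CO2, with 5 μM compound in glucose-supplemented (2%), MOPS-buffered RPMI (pH 7.2). Controls were posaconazole at 5 μM and 1% DMSO. The selection cut-off was at least 60% inhibition.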

[9] = tested on: R. microsporus preformed biofilm; assay: Preformed biofilm assay; assay type: cell-based, Rhizopus microsporus; details: R. microsporus, based on biofilm viability parameter
Description: (§4) For the preformed biofilm assay, cells were cultured as described above in the absence of the compounds. […] An additional incubation of 24 h at 37 °C was performed to evaluate the anti-biofilm activity. Evaluation of both biofilm formation and preformed biofilms was performed using three parameters as previously described. Crystal violet, safranin and XTT assays were used to analyze the overall biomass, extracellular matrix and metabolic activity, respectively.

[10] = tested on: R. stolonifer preformed biofilm; assay: Preformed biofilm assay; assay type: cell-based, Rhizopus stolonifer; details: R. stolonifer, based on biofilm viability parameter
Description: as §4

## C[C@@H]1[C@H](O)[C@@H](C)/C=C/C=C/C=C/C=C/C=C/C=C/C=C/[C@H](O[C@@H]2O[C@H](C)[C@@H](O)[C@H](N)[C@@H]2O)C[C@@H]2O[C@](O)(C[C@@H](O)C[C@@H](O)[C@H](O)CC[C@@H](O)C[C@@H](O)CC(=O)O[C@H]1C)C[C@H](O)[C@H]2C(=O)O [Amphotericin B, reference compound]
R. oryzae [1]
  MIC50: > 20 µM
  MFC: > 20 µM
R. microsporus
  MIC50: > 20 µM
  MFC: > 20 µM
[2]
  MFC: > 20 µM
  MIC: > 20 µM
R. oryzae [3]
  Efficacy of Drugs Alone (% of Inhibition), MIC50: 79.6 % of Inhibition
  Efficacy of Drugs Alone (% of Inhibition), ½ MIC50: 21.4 % of Inhibition
R. oryzae UCP1295 [4]
  MIC: 40 µM
[5]
  oral bioavailability: negligible
R. stolonifer
  MIC50: > 20 µM
  MFC: > 20 µM

## Oc1cccc(C(Nc2nccs2)c2ccc3cccnc3c2O)c1 (stereo not shown) [MMV642550]
[6]; A549 alveolar basal epithelial cells, A549, 48 h
  CC50 at 48 h: > 50 µM
[6]; HaCaT keratinocyte cells
  CC50 at 48 h: > 50 µM
R. oryzae [1]; R. oryzae, from CC50 and MIC50 of planktonic cells
  Selectivity Index (SI), Planktonic Cell: >20
R. oryzae [1]
  MIC50: 2.5 µM (≈ 0.874 µg/mL)
  MFC: > 20 µM
R. microsporus; R. microsporus, from CC50 and MIC50 of planktonic cells
  Selectivity Index (SI), Planktonic Cell: >10
R. microsporus
  MIC50: 5 µM (≈ 1.75 µg/mL)
  MFC: > 20 µM
R. oryzae cells
  chitin content (calcofluor white): decreased
  neutral lipids (Nile Red): decreased
[2]
  MIC: 2.5 to 5 µM (≈ 0.874 to 1.75 µg/mL)
R. oryzae [3]
  Efficacy of Drugs Alone (% of Inhibition), MIC50: 62.9 % of Inhibition
  Efficacy of Drugs Alone (% of Inhibition), ½ MIC50: 42.3 % of Inhibition
R. oryzae [3]; combined with Amphotericin B
  Efficacy of Combined Drugs, E obs: 78.1%
  Interaction: S
  ΔE: 23.5%
  Efficacy of Combined Drugs, E exp: 54.6%
R. oryzae [3]; combined with Posaconazole
  Efficacy of Combined Drugs, E obs: 60.0%
  Interaction: A
  ΔE: −26.5%
  Efficacy of Combined Drugs, E exp: 86.5%
R. oryzae UCP1295 [4]
  MIC: 2.5 µM
[7]
  CC50 at 48 h: > 50 µM
R. oryzae UCP1295 [8]; Table S1, mean of the four values, read-out: % of growth inhibition, Mean
  inhibition at 5 µM: 59.8%
R. oryzae UCP1295 [8]; optical density 600 nm, read-out: Growth Inhibition
  inhibition at 5 µM: 60%
R. oryzae UCP1295 [8]; XTT reduction
  Viability Inhibition (XTT): 59%
[9]
  Selectivity Index (SI), Preformed Biofilm: >5
[10]
  Selectivity Index (SI), Preformed Biofilm: >10
R. stolonifer; R. stolonifer, from CC50 and MIC50 of planktonic cells
  Selectivity Index (SI), Planktonic Cell: >20
R. stolonifer
  MIC50: 2.5 µM (≈ 0.874 µg/mL)
  MFC: > 20 µM
